Measurements published in PubChem BioAssay AID504889 (The Scripps Research Institute Molecular Screening Center, 2011).
Activity calls are given as the source filed them. How the calls were made is not given here.

Target: MCHR1
Experiment: MCHR1 antagonist potency, late-stage follow-up, selectivity assay for GPR7 antagonist project, cell-based, fluorescence, dose response, set 2 (AID 504889)
Conditions: MCHR1-expressing cells, antagonist mode

## COc1ccc(Oc2c(-c3ccccc3)cnn(-c3ccc(C)cc3)c2=O)cc1
Run 1
  IC50: inactive
Run 2
  IC50: > 20 µM (inactive)

## COc1ccc(Oc2c(C3CC3)cnn(-c3ccc(C)cc3)c2=O)cc1
Run 1
  IC50: 5.41 µM
Run 2
  IC50: inactive

## CCc1ccc(Oc2c(Cl)cnn(-c3ccc(C)cc3)c2=O)cc1
Run 1
  IC50: 5.02 µM
Run 2
  IC50: 3.09 µM

## CCc1ccc(-n2ncc(Cl)c(Oc3ccc(OC)cc3)c2=O)cc1
Run 1
  IC50: 3.92 µM
Run 2
  IC50: inactive

## CCC(C)c1ccc(-n2ncc(Cl)c(Oc3ccc(OC)cc3)c2=O)cc1 (centres undefined)
Run 1
  IC50: 2.17 µM
Run 2
  IC50: 4.71 µM

## COc1ccc(Oc2c(Br)cnn(-c3ccc(C)cc3)c2=O)cc1
Run 1
  IC50: inactive
Run 2
  IC50: inactive

## COc1ccc(Oc2c(C#N)cnn(-c3ccc(C(C)C)cc3)c2=O)cc1
Run 1
  IC50: 7.47 µM
Run 2
  IC50: 7.6 µM

## COc1ccc(Oc2c(Cl)cnn(-c3ccc(C(C)C)c(C)c3)c2=O)cc1
Run 1
  IC50: 1.96 µM
Run 2
  IC50: 1.71 µM

## Cc1ccc(-n2ncc(Cl)c(Oc3ccc(OC(F)(F)F)cc3)c2=O)cc1
Run 1
  IC50: 2.9 µM
Run 2
  IC50: 4.98 µM

## COc1ccc(Oc2c(-c3cccs3)cnn(-c3ccc(C)cc3)c2=O)cc1
Run 1
  IC50: > 20 µM (inactive)
Run 2
  IC50: > 20 µM (inactive)

## COc1ccc(Oc2c(Cl)cnn(-c3cccc(C)c3)c2=O)cc1
Run 1
  IC50: 5.39 µM
Run 2
  IC50: 6.79 µM

## Cc1ccc(-n2ncc(Cl)c(Oc3ccc(C(F)(F)F)cc3)c2=O)cc1
Run 1
  IC50: 5.51 µM
Run 2
  IC50: 8.4 µM

## COC(=O)c1cnn(-c2ccc(C(C)C)cc2)c(=O)c1Oc1ccc(OC)cc1
Run 1
  IC50: 6.89 µM
Run 2
  IC50: 4.95 µM

## COc1ccc(Oc2c(Cl)cnn(-c3ccc(C(C)(C)C)cc3)c2=O)cc1
Run 1
  IC50: 2.7 µM
Run 2
  IC50: 8.99 µM

## COc1ccc(Oc2c(Cl)cnn(-c3ccc(C(C)C)cc3)c2=O)cc1
Run 1
  IC50: 3.1 µM
Run 2
  IC50: 4.3 µM

## COc1ccc(Oc2c(Cl)cnn(-c3cccc(C(C)C)c3)c2=O)cc1
Run 1
  IC50: 1.72 µM
Run 2
  IC50: 2.37 µM

## COc1ccc(Oc2c(-c3ccco3)cnn(-c3ccc(C)cc3)c2=O)cc1
Run 1
  IC50: inactive
Run 2
  IC50: > 20 µM (inactive)

## COc1ccc(Oc2c(Cl)cnn(-c3ccc(C)cc3)c2=O)cc1
Run 1
  IC50: inactive
Run 2
  IC50: inactive

## CCOc1ccc(Oc2c(Cl)cnn(-c3ccc(C)cc3)c2=O)cc1
Run 1
  IC50: inactive
Run 2
  IC50: 8.62 µM

## COc1ccc(Oc2c(C=O)cnn(-c3ccc(C(C)C)cc3)c2=O)cc1
Run 1
  IC50: 4.78 µM
Run 2
  IC50: 5.15 µM

## COc1ccc(Oc2c(C)cnn(-c3ccc(C(C)C)cc3)c2=O)cc1
Run 1
  IC50: 9.81 µM
Run 2
  IC50: 8.05 µM

## Cc1ccc(-n2ncc(Cl)c(Oc3ccc(CO)cc3)c2=O)cc1
Run 1
  IC50: > 20 µM (inactive)
Run 2
  IC50: > 20 µM (inactive)

## COc1ccc(Oc2c(Cl)cnn(-c3cc(C)cc(C)c3)c2=O)cc1
Run 1
  IC50: 3.94 µM
Run 2
  IC50: 5.04 µM
Run 3
  IC50: 2.68 µM

## COc1ccc(Oc2c(Cl)cnn(-c3cccc4ccccc34)c2=O)cc1
Run 1
  IC50: 8.39 µM
Run 2
  IC50: 4.46 µM
